# Reference: patent publication US20240091242A1, “LIPIDS THAT REDUCE LUNG DAMAGE, IMPROVE PULMONARY FUNCTION AND DECREASE PRO-INFLAMMATORY CYTOKINES” (Signpath Pharma, Inc., priority 2021, published 2024)
# Entries after “also recorded” stand apart in the source; their conditions may differ.
# Assays:
# [1] = Toxicity (non-toxic dose); conditions: in vivo
# [2] = Detectable activity after a single dose; format: in vivo
# murine LPS ARDS model [3] = experiment: Histopathological evaluation (lung injury score), murine LPS ARDS model; format: in vivo, mouse
# Protocol: (§1) In the ARDS group, mice received Escherichia coli O111:B4 lipopolysaccharide (50 μg in 0.05 mL saline, i.t.), while, in the control group, the animals received an instillation of saline (0.05 mL, i.t.). For intratracheal instillation, mice were slightly anesthetized with isoflurane.
# (§2) The lipid SPPCT-800 was dissolved in water (low dose—2 mg/ml; high dose—20 mg/ml). For the 24-hour study, two treatment approaches were used. Mice received a single dose of SPPCT-800 (200 mg/kg, per gavage) as prevention (30 minutes before the LPS instillation), or as a single dose of either 20 mg/kg or 200 mg/kg as therapy (3-hour after the LPS instillation). For the 72-hour study, mice received a total of 8 treatments of SPPCT-800 (200 mg/kg) starting at 3-hour after the LPS instillation. Disease progression in mice was assessed by the evaluation of pulmonary functions, blood oxygen saturation, and body weight change. On the terminal day of each study (24 hours or 72 hours), measurement of cytokine levels in the plasma and BALF, and histopathology evaluations were done.
# Histopathological Evaluation. […] A blinded histologist evaluated the general morphology of alveolar septa, lung structure, and inflammation according to the general scoring described and adopted by Matute-Bello, et al.^25, 26
# (§3) Statistical Analysis. Results are expressed as means±SEM. […]
# murine LPS ARDS model [4] = experiment: Body weight and lung weight, murine LPS ARDS model; format: in vivo, mouse; conditions: for body weight loss: 72-hour study
# Protocol: C57B16/N mice were obtained from Charles River Laboratories (Montreal, Quebec). Male mice, 20-25 g of body weight, were used throughout the studies. Animals were housed in specific pathogen[…]free conditions, and all experiments were approved by Institutional Animal Care and Use Committee (IPST_SL20200402-1). Animal studies are reported in compliance with […] guidelines.
# as §1, §2
# Statistical Analysis. Results are expressed as means±SEM. Comparisons were made on normally distributed data using ANOVA, followed by a Fisher post hoc test to assess the difference between LPS+vehicle group with GraphPad Prism Software version 8.0 (San Diego, CA, USA). Differences were considered statistically significant when P values were less than 0.05. (* Shown difference versus Sham animals and # shown difference versus LPS+Vehicle group. * Means P<0.05, ** P<0.01, *** P<0.001 while # means P<0.05, ##P<0.01 and ###P<0.001).
# murine LPS ARDS model [5] = experiment: Arterial blood oxygen saturation (SpO2), murine LPS ARDS model; format: in vivo, mouse; conditions: 72-hour study; compared to untreated LPS group; did not reach statistical significance
# Protocol: as §1
# as §2, with “On the terminal day of each study (24 hours or 72 hours), measurement of cytokine levels in the plasma and BALF, and histopathology evaluations were done.” left out
# At 0 hour (baseline), 24-hour post-LPS instillation, and 48 and 72-hour post LPS instillation, arterial blood oxygen saturation (SpO2) was recorded on conscious mice. SpO2 was read off of a pulse oximeter (STARR Life Sciences MouseOx Plus system, Oakmont, PA) with a mouse collar probe installed at the carotid level. The saturation values were measured in percentages (%).
# as §3
compound,measurement,setting,value
CCCCCCCCCCCCCC(=O)OCC(COP(=O)([O-])OCC(COC(=O)CCC)OC(=O)CCC)OC(=O)CCCCCCCCCCCCC.CCCCCCCCCCCCCC(=O)OCC(COP(=O)([O-])OCC(COC(=O)CCC)OC(=O)CCC)OC(=O)CCCCCCCCCCCCC.[Mg+2] (stereo not drawn) [SPPCT-800],non-toxic dose,[1],up to 800 mg/kg per day
same,single dose with detectable activity,[2],1 mg/kg
same,lung injury score,"murine LPS ARDS model [3]; at 24 hours, given 30 minutes prior to LPS as a preventative, P<0.01",0.3
same,lung injury score,"murine LPS ARDS model [3]; at 72 hours, multi-dose treatment group",2.2
same,body weight loss versus LPS (in words),murine LPS ARDS model [4]; 48 hours and 72 hours after LPS treatment,significantly reduced
same,wet lung weight/dry lung ratio,murine LPS ARDS model [4]; 72 hours,decreased
same,lung index (lung weight/body weight×100),"murine LPS ARDS model [4]; 72 hours, P<0.05",reduced; also recorded: significantly decreased
same,lung weight,"murine LPS ARDS model [4]; animals sacrificed at 72 hours, P=0.1100",tended to reduce
same,body weight loss,murine LPS ARDS model [4]; at 24 hours after LPS,14%
same,body weight loss,"murine LPS ARDS model [4]; at 48 hours after LPS, P<0.05 vs untreated LPS group",14%
same,body weight loss,"murine LPS ARDS model [4]; at 72 hours after LPS, P<0.05 vs untreated LPS group",8%
same,SpO2 levels,murine LPS ARDS model [5],maintained
